The target in one test is T1, mouse 11β-HSD1 (Mus musculus, UniProt P50172).
T1 construct: 100 ug/ml human/mouse liver microsomes; from tissue; host or cells: mouse liver microsomes
The test can be described thus: Enzyme activity analysis on mouse 11β-HSD1 (HTRF cortisol, liver microsomes). Conditions: second value of cell. The class given is biochemical. On the procedure:
(§1) After culturing at 37° C. for 2 hours, 5 μl of cryptate-labeled anti-cortisol antibody and 5 μl of d2-labeled cortisol were added thereto. After further culturing at room temperature for 2 hours, a homogeneous time-resolved fluorescence (HTRF, Cisbio) signal was measured. From each analysis, based on a standard curve calculated using cortisols of several known concentrations, an amount of produced cortisol was tested.
(§2) While an amount of cortisol, produced without the compound, was used as a control, an inhibition percentage by the test compound, at each concentration, was calculated. By using an inhibition curve calculated by coordinates of inhibition percentage to test compound concentration, an IC50 value of the compound on 11β-HSD1 was obtained.

Another test deals with T2, human 11β-HSD1 (Homo sapiens, UniProt P28845).
T2 construct: 100 ug/ml human/mouse liver microsomes; from tissue; host or cells: human liver microsomes
The test can be described thus: Enzyme activity analysis on human 11β-HSD1 (HTRF cortisol, liver microsomes). The class given is biochemical. The following applies: first value of cell. On the procedure: as §1, §2
A general note: Time-resolved FRET reads energy transfer from a long-lived donor to a nearby acceptor.

T2 sequence (P28845 whole entry): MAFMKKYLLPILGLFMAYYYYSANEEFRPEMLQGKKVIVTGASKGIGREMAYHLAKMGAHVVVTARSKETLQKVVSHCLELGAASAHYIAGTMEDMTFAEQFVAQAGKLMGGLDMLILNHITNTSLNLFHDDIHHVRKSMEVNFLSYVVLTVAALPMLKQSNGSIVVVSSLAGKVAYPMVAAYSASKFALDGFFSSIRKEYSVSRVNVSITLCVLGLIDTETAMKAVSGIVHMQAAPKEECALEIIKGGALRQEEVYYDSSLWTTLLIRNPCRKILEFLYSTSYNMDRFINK
T1 sequence (P50172 whole entry): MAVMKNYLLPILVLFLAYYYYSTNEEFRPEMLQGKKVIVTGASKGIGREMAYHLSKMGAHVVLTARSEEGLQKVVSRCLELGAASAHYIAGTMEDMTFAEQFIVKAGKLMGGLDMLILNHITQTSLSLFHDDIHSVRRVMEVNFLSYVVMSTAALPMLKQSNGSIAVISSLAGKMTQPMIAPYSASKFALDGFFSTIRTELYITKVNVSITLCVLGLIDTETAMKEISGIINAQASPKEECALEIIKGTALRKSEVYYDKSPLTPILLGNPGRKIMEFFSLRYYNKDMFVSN

For the compound `CC(C)(NS(=O)(=O)c1c(Cl)cccc1Cl)C(=O)NC1C2CC3CC(C2)CC1C3` (centres unmarked) [compound 45, N-(adamantane-2-yl)-2-methyl-2-(2,6-dichlorophenylsulfonamido)propanamide], the IC50 – broadly, the concentration needed to halve the response being measured – against mouse 11β-HSD1 was found to be 0.02 µM; against human 11β-HSD1, 0.009 µM.

Consider `CC(C)(NS(=O)(=O)c1cccc(C(F)(F)F)c1)C(=O)NC1C2CC3CC1CC(C(N)=O)(C3)C2` (centres unmarked) [compound 127], for which the figures for the IC50 at mouse 11β-HSD1 and against human 11β-HSD1 were 0.053 µM and 0.062 µM, respectively.

On to `Cc1ccc([N+](=O)[O-])cc1S(=O)(=O)NC(C)(C)C(=O)NC1C2CC3CC1CC(O)(C3)C2` (centres unmarked) [compound 76, N-(5-hydroxyadamantane-2-yl)-2-methyl-2-(2-methyl-5-nitrophenylsulfonamido)propanamide], for which the IC50 amounted to 2.08 µM on mouse 11β-HSD1 and 0.146 µM against human 11β-HSD1.

For the compound `Cc1cc(F)ccc1S(=O)(=O)NC(C)(C)C(=O)NC1C2CC3CC(C2)CC1C3` (centres unmarked) [compound 39, N-(adamantane-2-yl)-2-methyl-2-(4-fluoro-2-methylphenylsulfonamido)propanamide], the IC50 on mouse 11β-HSD1 came out at 0.561 µM; against human 11β-HSD1, 0.043 µM.

As for `CC(C)(NS(=O)(=O)c1ccccc1F)C(=O)NC1C2CC3CC(C2)CC1C3` (centres unmarked) [compound 16, N-(adamantane-2-yl)-2-methyl-2-(2-fluorophenylsulfonamido)propanamide], the values for the IC50 against mouse 11β-HSD1 and against human 11β-HSD1 were 0.255 µM and 0.034 µM, respectively.

As to `NC(=O)C12CC3CC(C1)C(NC(=O)C1(NS(=O)(=O)c4c(Cl)cccc4Cl)CC1)C(C3)C2` (centres unmarked) [compound 134, N-4-(1-(2,6-dichlorophenylsulfonamido)cyclopropanecarboxyamido)adamantane-1-carboxyamide], the IC50 on mouse 11β-HSD1 and on human 11β-HSD1 was 0.021 µM each time.

Consider `Cc1c(Cl)cccc1S(=O)(=O)NC1(C(=O)NC2C3CC4CC2CC(C(N)=O)(C4)C3)CC1` (centres unmarked) [compound 133, N-4-(1-(2-methyl-3-chlorophenylsulfonamido)cyclopropanecarboxyamido)adamantane-1-carboxyamide], for which the IC50 at mouse 11β-HSD1 was found to be 0.074 µM; at human 11β-HSD1, 0.015 µM.

For the compound `CC(C)(NS(=O)(=O)c1ccc(OC(F)(F)F)cc1)C(=O)NC1C2CC3CC(C2)CC1C3` (centres unmarked) [compound 4, N-(adamantane-2-yl)-2-methyl-2-(4-(trifluoromethoxy)phenylsulfonamido)propanamide], the figures for the IC50 on mouse 11β-HSD1 and at human 11β-HSD1 were 1.68 µM and 1.32 µM, respectively.

Turning to `CC(C)(NS(=O)(=O)c1ccc(Cl)cc1)C(=O)NC1C2CC3CC(C2)CC1C3` (centres unmarked) [compound 5, N-(adamantane-2-yl)-2-methyl-2-(4-chlorophenylsulfonamido)propanamide], the IC50 on mouse 11β-HSD1 is 1.05 µM; against human 11β-HSD1 it was 0.43 µM.

As for `Cc1ccc(S(=O)(=O)NC(C)(C)C(=O)NC2C3CC4CC2CC(C(N)=O)(C4)C3)cc1Cl` (centres unmarked) [compound 103, N-4-(2-(3-chloro-4-methylphenylsulfonamido)-2-methylpropanamido)adamantane-1-carboxyamide], the IC50 came to 0.037 µM against mouse 11β-HSD1 and 0.026 µM against human 11β-HSD1.

`Cc1cc(C)cc(S(=O)(=O)NC(C)(C)C(=O)NC2C3CC4CC2CC(C(N)=O)(C4)C3)c1` (centres unmarked) [compound 91, N-4-(2-(3,5-dimethylphenylsulfonamido)-2-methylpropanamido)adamantane-1-carboxyamide]: the IC50 at mouse 11β-HSD1 turned out to be 0.107 µM; against human 11β-HSD1 it was 0.016 µM.

Take `NC(=O)C12CC3CC(C1)C(NC(=O)C1(NS(=O)(=O)c4ccccc4F)CCCCC1)C(C3)C2` (centres unmarked) [compound 185, N-4-(1-(2-fluorophenylsulfonamido)cyclohexanecarboxyamido)adamantane-1-carboxyamide]: the half-inhibitory concentration (IC50) was determined as 0.119 µM at mouse 11β-HSD1 and 0.028 µM against human 11β-HSD1.

With `NC(=O)C12CC3CC(C1)C(NC(=O)C1(NS(=O)(=O)c4cccc5cccnc45)CC1)C(C3)C2` (centres unmarked) [compound 135, N-4-(1-(quinoline-8-sulfonamido)cyclopropanecarboxyamido)adamantane-1-carboxyamide], the concentration for half-maximal inhibition (IC50) against mouse 11β-HSD1 was 0.02 µM; at human 11β-HSD1, 0.042 µM.

The values are drawn from US9073830B2 (Hyundai Pharm Co., Ltd., priority 2011, dated 2015).
